These results are taken from ChEMBL document CHEMBL5620378, “Structure-based discovery of novel cruzain inhibitors with distinct trypanocidal activity profiles” (Eur J Med Chem, 2023).

pIC50, pKi: −log10 of the molar value. Active and inactive are the calls of the source. The rule behind the calls is not given here.

In series [1] the target is Cruzipain (Trypanosoma cruzi) (UniProt P25779). In words: Inhibition of C-terminal truncated Trypanosoma cruzi Tulahuen Cruzain using Z-FR-AMC as substrate at 100 uM measured for 5 mins by fluorescence based analysis.
Cruzipain (Trypanosoma cruzi), sequence (P25779 123-467 limits assumed): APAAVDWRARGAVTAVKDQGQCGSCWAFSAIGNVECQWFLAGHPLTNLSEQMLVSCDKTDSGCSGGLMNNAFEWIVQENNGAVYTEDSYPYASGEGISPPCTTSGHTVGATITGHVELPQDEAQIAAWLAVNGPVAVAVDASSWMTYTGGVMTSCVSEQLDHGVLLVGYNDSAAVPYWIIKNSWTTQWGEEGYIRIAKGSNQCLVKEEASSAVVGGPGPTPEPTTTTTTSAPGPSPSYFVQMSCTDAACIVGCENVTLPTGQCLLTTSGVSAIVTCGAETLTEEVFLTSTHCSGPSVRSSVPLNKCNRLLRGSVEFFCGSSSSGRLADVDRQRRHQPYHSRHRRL
Series [2] has the same target. In words: Ratio of IC50 for inhibition of C-terminal truncated Trypanosoma cruzi Tulahuen Cruzain in presence of different concentrations of Triton to IC50 for inhibition of C-terminal truncated Trypanosoma cruzi Tulahuen Cruzain.
Series [3] shares this target. In words: Competitive inhibition of C-terminal truncated Trypanosoma cruzi Tulahuen Cruzain assessed as constant Vmax using Z-FR-AMC as substrate by Lineweaver-Burk plot analysis.
In a further series the target is Cathepsin L (Homo sapiens, UniProt P07711). Description: Inhibition of human recombinant Cathepsin L (18 to 333 residues) assessed as residual activity using Z-FR-AMC as substrate at 100 uM measured for 5 mins by fluorescence based analysis. Conditions: recombinant human Cathepsin L (residues 18 to 333), probe Z-FR-AMC, read-out: Activity.
Cathepsin L, sequence (P07711 whole entry, the tested form may be a part): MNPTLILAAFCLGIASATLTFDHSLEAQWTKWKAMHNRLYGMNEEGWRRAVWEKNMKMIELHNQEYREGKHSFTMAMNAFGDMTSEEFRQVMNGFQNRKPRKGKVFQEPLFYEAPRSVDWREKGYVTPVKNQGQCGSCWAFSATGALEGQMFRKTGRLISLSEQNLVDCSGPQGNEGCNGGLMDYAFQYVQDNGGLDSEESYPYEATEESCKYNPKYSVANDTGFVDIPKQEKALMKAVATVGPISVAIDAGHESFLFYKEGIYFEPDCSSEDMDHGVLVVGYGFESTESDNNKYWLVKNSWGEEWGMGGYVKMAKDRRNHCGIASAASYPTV
Series [4] concerns the target Cruzipain (Trypanosoma cruzi) (UniProt P25779). Description: Ratio of IC50 for inhibition of C-terminal truncated Trypanosoma cruzi Tulahuen Cruzain in presence of 0% Triton and BSA to IC50 for inhibition of C-terminal truncated Trypanosoma cruzi Tulahuen Cruzain.
Series [5] has the same target. In words: Inhibition of C-terminal truncated Trypanosoma cruzi Tulahuen Cruzain using Z-FR-AMC as substrate at 100 uM preincubated with enzyme for 10 mins and measured for 5 mins by fluorescence based analysis. Particulars: time 15.0 min.
In series [6] the target is T1, Cruzipain (Trypanosoma cruzi, UniProt P25779). In words: Inhibition of C-terminal truncated Trypanosoma cruzi Tulahuen Cruzain using Z-FR-AMC as substrate measured for 5 mins by fluorescence based analysis.
T1 sequence (P25779 whole entry, the tested form may be a part): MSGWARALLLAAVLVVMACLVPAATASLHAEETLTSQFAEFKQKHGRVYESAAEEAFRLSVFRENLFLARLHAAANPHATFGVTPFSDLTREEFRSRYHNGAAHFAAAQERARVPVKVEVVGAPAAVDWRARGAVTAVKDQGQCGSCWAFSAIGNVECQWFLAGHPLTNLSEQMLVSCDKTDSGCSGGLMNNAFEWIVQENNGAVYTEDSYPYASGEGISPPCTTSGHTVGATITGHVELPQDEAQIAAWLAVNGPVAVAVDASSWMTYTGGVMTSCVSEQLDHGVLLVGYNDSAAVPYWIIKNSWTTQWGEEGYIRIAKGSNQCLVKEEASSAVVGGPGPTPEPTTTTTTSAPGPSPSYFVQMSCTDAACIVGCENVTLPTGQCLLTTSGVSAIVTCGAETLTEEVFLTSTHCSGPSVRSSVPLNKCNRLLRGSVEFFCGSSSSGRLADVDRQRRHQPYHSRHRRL
For series [7], the system named is Trypanosoma cruzi. Description: Trypanocidal activity against Trypanosoma cruzi Y infected in C57BL/6 mouse Peritoneal macrophages assessed as reduction in trypomastigotes release at 100 uM measured on day 5 post-infection. Conditions: Peritoneal macrophage, 120 h, time 5 day. It is filed as functional.
Series [8] has as its system Trypanosoma cruzi. Description: Trypanocidal activity against epimastigotes form of Trypanosoma cruzi Y assessed as decrease in parasite growth at 25 uM measured after 72 hrs by optical microscopic analysis. It is filed as functional.
For series [9], the system named is Trypanosoma cruzi. In words: Trypanocidal activity against Trypanosoma cruzi Y infected in C57BL/6 mouse Peritoneal macrophages assessed as reduction in trypomastigotes release at 6.25 uM measured on day 5 post-infection. The class given is functional. Particulars: Peritoneal macrophage, 120 h, time 5 day.
Series [10] has as its system Trypanosoma cruzi. Description: Trypanocidal activity against trypomastigote form of Trypanosoma cruzi Y assessed as reduction in parasite load at 6.25 uM incubated for 1 hr. The class given is functional.
The target in series [11] is T1, Cruzipain. Description: Competitive inhibition of C-terminal truncated Trypanosoma cruzi Tulahuen Cruzain using Z-FR-AMC as substrate by Michaelis-menten based analysis.
Series [12] addresses Cruzipain (Trypanosoma cruzi) (UniProt P25779). In words: Competitive inhibition of C-terminal truncated Trypanosoma cruzi Tulahuen Cruzain assessed as increase in Km(app) using Z-FR-AMC as substrate by Michaelis-menten based analysis.
The subject of series [13] is Trypanosoma cruzi. In words: Trypanocidal activity against epimastigotes form of Trypanosoma cruzi Y assessed as decrease in parasite growth at 200 uM pretreated for 1 hr followed by drug wash-out and measured after 72 hrs by optical microscopic analysis. The class given is functional.
The subject of series [14] is Peritoneal macrophage. In words: Cytotoxicity against C57BL/6 mouse Peritoneal macrophages assessed as cell damage at 0.19 to 400 uM measured after 24 hrs by LDH assay. Particulars: dose 0.19-400 µM. The class given is toxicity, cell-based.
The subject of series [15] is Peritoneal macrophage. In words: Cytotoxicity against C57BL/6 mouse Peritoneal macrophages infected with Trypanosoma cruzi Y assessed as cell damage at 0.19 to 400 uM measured after 24 hrs by LDH assay. The class given is toxicity, cell-based. Particulars: dose 0.19-400 µM.
The subject of series [16] is Peritoneal macrophage. In words: Effect on NO release in C57BL/6 mouse Peritoneal macrophages infected with Trypanosoma cruzi Y measured at 11 days post-infection by Griess reagent based assay. The class given is functional, cell-based. Conditions: time 11.0 day.
The test system of series [17] is Trypanosoma cruzi. In words: Trypanocidal activity against epimastigotes form of Trypanosoma cruzi Y assessed as parasite viability by MTT assay. The class given is functional, organism-based. On the technique in general: Tetrazolium dyes change colour on reduction, which living cells bring about.
Series [18] deals with Trypanosoma cruzi. In words: Trypanocidal activity against trypomastigote form of Trypanosoma cruzi Y infected in C57BL/6 mouse Peritoneal macrophages assessed as reduction in intracellular parasite infection at 0.19 to 400 uM preincubated with parasite for 1 hr followed by infection and measured at 3 to 11 days post-infection. The class given is functional, organism-based. Conditions: Peritoneal macrophage, dose 0.19-400 µM, time 3-11 day.

Series [19] relates to Trypanosoma cruzi. Description: Trypanocidal activity against epimastigotes form of Trypanosoma cruzi Y assessed as decrease in parasite growth at 400 uM measured after 72 hrs by optical microscopic analysis. The class given is functional.

As a reminder, the inhibition is how much of the control response was suppressed. Turning to `Cc1ccc(CNC(=O)C2Cc3ccc(F)cc3C(=O)O2)o1` (configuration not stated), the inhibition in series [1] stood at 13%.
Same read-out and setting: the figure for `Cc1ccc(CNC(=O)[C@@H]2Cc3ccccc3CN2)o1` is 8%.
Still for that read-out and setting: the figure for `Cc1ccc(CNC(=O)[C@H]2Cc3ccccc3CN2)o1` is 4%; for `O=C(NCc1ccccn1)C1Cc2ccccc2CN1` (configuration not stated) it is 7%.
The compound `O=C(NCc1ccco1)[C@@H]1Cc2ccccc2CO1` returned an inhibition in [1] of 25%.
What is called pIC50 is the IC50 on a negative log10 scale, so that one unit is a factor of ten. High values mean a small IC50, low ones a large IC50. As a reminder, the pKi is −log10 of the Ki, conventionally taken in molar units. The low end stands for a large Ki, the high end for a small Ki. With `O=C(NCc1ccco1)C1Cc2ccccc2CN1` (racemic), the Ratio IC50 in series [2] stood at 3; in [4] it was 7. The inhibition entry in series [3] and in series [12] was “Active” throughout. Also, on Cathepsin L, the activity at 5 min, 100 µM is 51%. For the same compound, the inhibition in series [5] and in [1] was 100% in each case. Further, the pIC50 against Cruzipain [6] was 5.52. In addition, the inhibition at 100 µM in the series on Trypanosoma cruzi [7] was 25%. Besides, the inhibition at 25 µM with Trypanosoma cruzi [8] was 43%. In addition, the inhibition at 6.25 µM in the series with Trypanosoma cruzi [9] was 18%; with Trypanosoma cruzi [10] it was 13%. For the same compound, the pKi on Cruzipain [11] was 5.34. Further, in the series on Trypanosoma cruzi [13], the inhibition at 200 µM was found to be 20%. Moreover, the Activity entry with Peritoneal macrophage [14] and in the series on Peritoneal macrophage [15] was “Non-Toxic” throughout. Moreover, the Activity result with Peritoneal macrophage [16] and in the series on Trypanosoma cruzi [17] was “inactive” in each case.
On to `O=C(NCc1ccco1)C1Cc2c(F)cccc2CN1` (racemic), for which the Ratio IC50 in series [2] came to 6; in [4] it was 10. The inhibition result in series [3] and in series [12] was “Active” each time. For the same compound, the activity at 5 min, 100 µM on Cathepsin L turned out to be 65%. Moreover, in the series on Trypanosoma cruzi [18], the Activity entry was “Active”. Moreover, at Cruzipain [6], the pIC50 is 4.59. In series [1], the inhibition is 100%. The inhibition at 100 µM with Trypanosoma cruzi [7] came out at 74%. Also, the inhibition at 25 µM in the series on Trypanosoma cruzi [8] was 6%. The inhibition at 6.25 µM in the series on Trypanosoma cruzi [9] worked out at 51%; in the series with Trypanosoma cruzi [10], 39%. Further, the pKi on Cruzipain [11] was 4.57. Further, in the series with Trypanosoma cruzi [13], the inhibition at 200 µM was 12%. The Activity result with Peritoneal macrophage [14] and in the series with Peritoneal macrophage [15] was “Non-Toxic” in each case. For the same compound, the inhibition at 400 µM in the series on Trypanosoma cruzi [19] stood at 23%. Besides, the Activity result in the series on Peritoneal macrophage [16] and with Trypanosoma cruzi [17] was “inactive” throughout.
